In patent US20090286693A1, “MICROARRAYS OF TAGGED COMBINATORIAL TRIAZINE LIBRARIES” (New York University, NYU Medical Center, Department of …, priority 2001, published 2009):
Where two headings read alike, the source gives them in different places.

Legend:
human IgG [1] = test system: T1, human IgG; assay: Small-molecule microarray screening with Cy3-labeled human IgG; format: binding; settings: for microarray hit strength in words: based on spot intensity; for array signal (fluorescence units): spot intensity, background subtracted
T1 construct: array signal (fluorescence units); other: spot intensity, background subtracted; human IgG-Cy3; array signal class; other: symbol in brackets after the fluorescence units; microarray hit strength in words; other: based on spot intensity, human IgG-Cy3; fused on or other part: Cy3 dye coupled through the NHS ester (chemical label, no fusion)
Description: Human IgG was fluorescently labeled with Cy3-NHS to allow for sensitive visualization of small molecule-IgG interactions on the array. […] The resulting scans were typical to that seen in FIG. 1. […] The spot intensities of these molecules are given in Table 1, with the background subtracted accordingly.
Preparation and Analysis of Small-Molecule Arrays. Preparation of Slides Activated with N-Hydroxysuccinimide Esters. 2 Briefly, 25 mm×75 mm slides (Fisher Scientific) were cleaned in piranha solution (sulfuric acid/hydrogen peroxide, 7:3). An amine functionality was incorporated onto the slides by silanization using a solution of 3% (aminopropyl)triethoxysilane in 2% water and 95% ethanol. After 1-2 h of soaking, the slides were washed with ethanol and cured at 150° C. for at least 2 h. Subsequently, the amine slides were incubated in a solution of 180 mM succinic anhydride in DMF for 30 min thereafter were transferred to a boiling water bath for 2 min. The slides were washed again in ethanol and dried under a stream of nitrogen. The carboxylic acid moieties now created on the slide surface were activated with a solution of 100 mM of TBTU (O-(benzotriazol-1-yl)-N,N,N,N-tetramethyluronium tetrafluoroborate), 200 mM DIEA, and 100 mM N-hydroxysuccinimide in DMF, thus generating the NHS-derivatized slides.
Microarray Printing. By individually weighing the solid compounds, triazine stock solutions were prepared to 2.5 mM in DMF, and 40-iL preparations were distributed across seven 384-well plates to give a total of 2688 distinct and pure compounds. Slides were spotted on an ESI SMA arrayer (Ontario, Canada) with the printhead installed with eight ArrayIt Chipmaker 7 Microspotting pins (Telechem, U.S.A.). Printing was performed in duplicate, and the pins were washed and sonicated in ethanol between samples. A repotting blotting process was also performed on plain slides to ensure spot uniformity. An additional solution of 0.2 mM Cy3-NH2 11 reference was spotted at the ends of the grids using a final eighth plate.
After spotting, the slides were allowed to sit for at least 12 h in situ and then were quenched by washing in an 1% ethanolamine (in DMF) bath for 2 h. After rinsing with Journal of Combinatorial Chemistry Discovery of Small-Molecule Ligands of Human IgG E ethanol and drying, the arrayed slides were stored in a desiccator at 4° C. The slides were stable for extended periods and, when required, were simply brought to room temperature.
Protein Screening with Labeled Human IgG. Proteins were tagged with Cy3-NHS by incubating 5 iL of 20 mM Cy3-NHS (Amersham Biosciences, U.K.) with 200 ig of human IgG (Calbiochem, U.S.A.) in a sodium bicarbonate buffer at pH 8. After 1 h of incubation, the labeled protein was separated from the free dye by a NAP-5 Sephadex G-50 column (Amersham Biosciences, U.K.). Before incubation with the labeled protein, the slides were preblocked to remove any nonspecific binding by soaking in 1% BSA in PBS for 1 h. After a brief rinsing with water, the slides were incubated with the labeled IgG.
A 1000-fold dilution of the above protein preparation was used as the incubation solution in a PBS buffer containing 1% BSA with the small-molecule arrays using the cover slip method for 30 min in a humid incubation chamber. Excess IgG was then removed by washing with distilled water. The background was further reduced using repeated washes with PBST.
Slide Scanning and Analysis. Slides were scanned on an ArrayWoRx scanner (Applied Precision, U.S.A.). Excel sheets were prepared to assign various compounds to specific numberings that could be readily tallied with reference numbers generated by the program. The ArrayWoRx software allows generation of reference files in which the spotting arrangement and the program overlay the spots on the results obtained, allowing compounds to be assigned in a rational fashion to every position. […]

human IgG [2] = biological target: T2, human IgG; assay: SPR (Biacore X) competitive binding with protein A on CM-5 chip immobilized with human IgG, dissociation constants
T2 construct: Kd/M; other: SPR, small molecule premixed with protein A, IgG immobilized; averaged dissociation constant; other: protein A with IgG alone
Experimental: Dissociation constants were determined for each of the compounds selected using SPR on a Biacore X system with BiaEvaluation software. Competitive binding experiments were performed with differentially proportioned mixtures of a small molecule and protein A on a CM-5 chip immobilized with human IgG (see Supporting Information) (Table 1), which also ensures the small molecule binding to the same Scheme 2. General Experimental Scheme a (a) Directed immobilization of triazine libraries to generate a high-density microarray. (B) Incubation with a fluorescently labeled protein. (C) Removal of the unbound protein through washing. (D) Detection with instantaneous deconvolution of positive hits. (E) Assessing efficacy of hits using SPR. An averaged dissociation constant of 1.25×10−9 M was obtained for protein A with IgG alone. Further assessments made by passing 2.5 iM of a small molecule against the IgG surface were also performed to give measurable association levels that correlate with binding affinities (Table 1). Immobilizing the small molecules and applying IgG in the solution phase obtained equivalent binding measurements; however, by employing the competitive binding method described, a single chip surface may be used for screening against multiple potential small-molecule ligands, economizing the process. A φ2 value of <10 was obtained for all Kd measurements, denoting good statistical validity of the results obtained.
Surface Plasmon Resonance (SPR) Determination of Dissociation Constants. Maintenance. SPR measurements were made on a Biacore X system (Biacore AB, Uppsala, Sweden). Various maintenance steps were performed to ensure that the instrument was kept in good working conditions. The integrated flow cell was washed, sanitized, and maintained using standard cleansing reagents on a weekly basis. Calibration checks were performed quarterly to ensure that the signal was of good quality, and the instrument was kept separate from other equipments to prevent interference. When not in use, the system was docked with a spare chip and flushed with water at a low flow rate of 5 iL/min to prevent clogging. The system was primed at least twice before use or for the purpose of initiating a new buffer type. A desorb process was performed every 2 days during periods of active use to remove proteins or other contaminating compounds that may have accumulated within the flow cell.
Procedures. Various approaches were conceived to assess the Kd values of the interactions. One successful method immobilized the small molecule on the CM-5 sensor chips and ran them through varying concentrations of IgG. […] We conceived that it would be easier to immobilize IgG on the surface and apply differing proportioned mixtures of the “hit” small molecule and protein A (Amersham Biosciences, U.K.). […]

[3] = test system: other fluorescently labeled proteins (unrelated to human IgG); assay: Control microarray screening with unrelated fluorescently labeled proteins; settings: same slide screened with other fluorescently labeled proteins; no positive binding
[4] = SPR, small molecule premixed with protein A, IgG immobilized, read-out: Kd/M

Compound | microarray hit strength in words (human IgG [1]) | array signal (fluorescence units) (human IgG [1]) | Kd (human IgG [2]; [4]) [µM] | specificity of binding toward human IgG [3] | Kd (human IgG [2]; protein A with IgG alone, read-out: averaged dissociation constant) [µM]
NCCOCCOCCNC(=O)c1ccc(CNc2nc(NCC3CCCCC3)nc(NC3CC4CCC3C4)n2)cc1 (stereo not drawn) [AMD03] | strongest hits | 185 | 2.02 | highly specific | 
NCCOCCOCCNC(=O)c1ccc(CNc2nc(NCC3CCCCC3)nc(NC3CCC3)n2)cc1 [AMD10] | strongest hits | 179 | 4.35 | highly specific | 
protein A: staphylococcal protein A (Amersham Biosciences), high molecular weight IgG ligand used as SPR competitor [reference compound] |  |  |  |  | 0.00125
COc1ccc(CNc2nc(Nc3ccc(CC(=O)NCCOCCOCCN)cc3)nc(N3CCCCC3)n2)cc1 [APF29] | negative | < 10 | 151 |  | 
